Reference: patent publication US10160753B2, “Indazole compounds as IRAK4 inhibitors” (Aurigene Discovery Technologies Limited, priority 2014, dated 2018)
Counter-ions that a name gives are not always drawn.

What follows are compounds tested against T1, recombinant IRAK-4 kinase (Homo sapiens, UniProt Q9NWZ3) (assay: IRAK-4 Biochemical Assay (TR-FRET)). Conditions: 30 min pre-incubation, 100 nM Biotin Histone H3, 20 μM ATP, read-out: IC50 values for IRAK4 activity.
T1 construct: purchased Millipore, USA
T1 sequence (Q9NWZ3 1-460): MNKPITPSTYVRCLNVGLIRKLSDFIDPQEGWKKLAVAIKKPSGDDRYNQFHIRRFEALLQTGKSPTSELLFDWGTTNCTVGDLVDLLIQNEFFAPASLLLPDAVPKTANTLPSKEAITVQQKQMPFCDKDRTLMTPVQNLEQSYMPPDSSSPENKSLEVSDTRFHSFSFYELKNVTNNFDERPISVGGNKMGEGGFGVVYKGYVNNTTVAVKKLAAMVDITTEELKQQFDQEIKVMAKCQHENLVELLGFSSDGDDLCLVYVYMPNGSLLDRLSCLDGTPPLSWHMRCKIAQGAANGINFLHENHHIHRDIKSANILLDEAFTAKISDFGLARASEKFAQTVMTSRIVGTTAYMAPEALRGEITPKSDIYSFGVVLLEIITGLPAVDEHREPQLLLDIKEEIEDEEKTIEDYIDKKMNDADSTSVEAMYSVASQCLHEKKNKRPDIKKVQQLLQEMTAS
Experimental: Compounds were tested for their potential to inhibit IRAK-4 enzyme in a TR-FRET assay using recombinant IRAK-4 kinase from Millipore, USA. The assay buffer was 50 mM Tris-HCl pH 7.5, 20 mM MgCl2, 1 mM EGTA, 2 mM DTT, 3 mM MnCl2 and 0.01% Tween 20.5 ng of IRAK-4 kinase was used for the assay. After pre-incubation of enzyme with test compound for 30 minutes at room temperature, a substrate mixture containing 100 nM Biotin Histone H3 (Millipore, USA) and 20 μM ATP (Sigma, USA) was added and the reaction was incubated for 30 min. Post incubation, the reaction was stopped by the addition of stop mix containing 40 mM EDTA, 1 nM of Europium-Anti-Phospho-Histone H3 (Ser10) antibody (Perkin Elmer, USA) and 20 nM SureLight Allophycocyanin-Streptavidin (Perkin Elmer, USA). The fluorescence emission at 615 nm and 665 nm were measured at an excitation of 340 nm and the percent inhibition was estimated from the ratio of the fluorescence intensities [(F665/F615)×10000]. The compounds were initially screened at 1 μM and 10 μM concentrations and potent compounds (>50% inhibition at 1 μM) were taken for dose response studies. The IC50 values were estimated by fitting the dose-response data to sigmoidal dose response (variable slope), curve fitting program using Graphpad Prism software Version 6.01.
In the case of `Cc1cc(-c2nc(C(=O)Nc3cc4cnn(C)c4cc3N3CCC(F)CC3)co2)ccn1` [Example 78, N-(6-(4-fluoropiperidin-1-yl)-1-methyl-1H-indazol-5-yl)-2-(2-methylpyridin-4-yl)oxazole-4-carboxamide], the IC50 is reported as < 50 nM.
`COc1cc(-c2nc(C(=O)Nc3cc4cn(C)nc4cc3N3CCC(O)CC3)co2)ccn1` [Example 107, N-(6-(4-hydroxypiperidin-1-yl)-2-methyl-2H-indazol-5-yl)-2-(2-methoxypyridin-4-yl)oxazole-4-carboxamide hydrochloride] was tested, and the IC50 was < 50 nM.
In the case of `Cc1cc(-c2nc(C(=O)Nc3cc4cnn(C)c4cc3N3CCCCCC3)co2)ccn1` [Example 72, N-(6-(azepan-1-yl)-1-methyl-1H-indazol-5-yl)-2-(2-methylpyridin-4-yl)oxazole-4-carboxamide], the IC50 is reported as < 50 nM.
For `Cc1cc(-c2nc(C(=O)Nc3cc4cn(C5CCCC5)nc4cc3N3CCOCC3)co2)ccn1` [Example 8, N-(2-cyclopentyl-6-morpholino-2H-indazol-5-yl)-2-(2-methylpyridin-4-yl) oxazole-4-carboxamide], the IC50 was < 50 nM.
For `Cc1ccc(C(=O)Nc2cc3cn(C)nc3cc2N2CCCCC2)nc1Cl` [Example 24, 6-chloro-5-methyl-N-(2-methyl-6-(piperidin-1-yl)-2H-indazol-5-yl)picolinamide], the IC50 was < 50 nM.
For `Cc1cc(-c2nc(C(=O)Nc3cc4cnn(C)c4cc3N3CC[C@H](O)C3)co2)ccn1` [Example 115, (S)—N-(6-(3-hydroxypyrrolidin-1-yl)-1-methyl-1H-indazol-5-yl)-2-(2-methylpyridin-4-yl)oxazole-4-carboxamide], the IC50 was < 50 nM.
With `Cc1cc(-c2nc(C(=O)Nc3cc4cn(C5CCCC5)nc4cc3N3CCCCC3)co2)ccn1` [Example 4, N-(2-cyclopentyl-6-(piperidin-1-yl)-2H-indazol-5-yl)-2-(2-methylpyridin-4-yl) oxazole-4-carboxamide] the IC50 was < 50 nM.
`Cc1cc(-c2nc(C(=O)Nc3cc4cn(C)nc4cc3N3CCCCCC3)co2)ccn1` [Example 71, N-(6-(azepan-1-yl)-2-methyl-2H-indazol-5-yl)-2-(2-methylpyridin-4-yl)oxazole-4-carboxamide] was tested, and the IC50 was < 50 nM.
In the case of `COCCn1cc2cc(NC(=O)c3coc(-c4ccnc(C)c4)n3)c(N3CCC(O)CC3)cc2n1` [Example 76, N-(6-(4-hydroxypiperidin-1-yl)-2-(2-methoxyethyl)-2H-indazol-5-yl)-2-(2-methylpyridin-4-yl)oxazole-4-carboxamide], the IC50 is reported as < 50 nM.
With `Cn1ncc2cc(NC(=O)c3cccc(N4CC[C@H](O)C4)n3)c(C3CC3)cc21` [Example 37, (S)—N-(6-cyclopropyl-1-methyl-1H-indazol-5-yl)-6-(3-hydroxypyrrolidin-1-yl)picolinamide] the IC50 was > 100 nM.
For `CN(C)c1cc(-c2nc(C(=O)Nc3cc4cn(C)nc4cc3N3CCCCC3)co2)ccn1` [Example 120, 2-(2-(dimethylamino)pyridin-4-yl)-N-(2-methyl-6-(piperidin-1-yl)-2H-indazol-5-yl)oxazole-4-carboxamide hydrochloride], the IC50 was < 50 nM.
`C[C@H](O)Cn1cc(-c2cccc(C(=O)Nc3cc4cnn(C)c4cc3C3CC3)n2)cn1` [Example 46, (S)—N-(6-cyclopropyl-1-methyl-1H-indazol-5-yl)-6-(1-(2-hydroxypropyl)-1H-pyrazol-4-yl)picolinamide] gave an IC50 of 50 to 100 nM.
`Cc1cc(-c2nc(C(=O)Nc3cc4cnn(C)c4cc3N3CCCCC3)co2)ccn1` [Example 3, N-(1-methyl-6-(piperidin-1-yl)-1H-indazol-5-yl)-2-(2-methylpyridin-4-yl) oxazole-4-carboxamide] was tested, and the IC50 was < 50 nM.
With `Cn1cc2cc(NC(=O)c3coc(-c4ccnc(N)c4)n3)c(N3CCCC(O)C3)cc2n1` (centres unmarked) [Example 102, 2-(2-aminopyridin-4-yl)-N-(6-(3-hydroxypiperidin-1-yl)-2-methyl-2H-indazol-5-yl)oxazole-4-carboxamide hydrochloride] the IC50 was < 50 nM.
`Cc1cc(-c2nc(C(=O)Nc3cc4cn(C)nc4cc3N3CCC3)co2)ccn1` [Example 60, N-(6-(azetidin-1-yl)-2-methyl-2H-indazol-5-yl)-2-(2-methylpyridin-4-yl)oxazole-4-carboxamide] was tested, and the IC50 was < 50 nM.
With `Cc1cc(-c2nc(C(=O)Nc3cc4cn(C)nc4cc3N3CCCC(CO)C3)co2)ccn1` (centres unmarked) [Example 82, N-(6-(3-(hydroxymethyl)piperidin-1-yl)-2-methyl-2H-indazol-5-yl)-2-(2-methylpyridin-4-yl)oxazole-4-carboxamide] the IC50 was < 50 nM.
For `Cn1cc2cc(NC(=O)c3cccc(N4CC[C@H](O)C4)n3)c(N3CCCCC3)cc2n1` [Example 39, (S)-6-(3-hydroxypyrrolidin-1-yl)-N-(2-methyl-6-(piperidin-1-yl)-2H-indazol-5-yl)picolinamide], the IC50 was < 50 nM.
With `COCC(=O)OC1CCN(c2cc3c(cc2NC(=O)c2coc(-c4ccnc(C)c4)n2)c(C)nn3C)CC1` [Example 106, 1-(1,3-dimethyl-5-(2-(2-methylpyridin-4-yl)oxazole-4-carboxamido)-1H-indazol-6-yl)piperidin-4-yl 2-methoxyacetate] the IC50 was < 50 nM.
With `Cc1cc(-c2nc(C(=O)Nc3cc4cn(C)nc4cc3N3CCCC(F)C3)co2)ccn1` (centres unmarked) [Example 79, N-(6-(3-fluoropiperidin-1-yl)-2-methyl-2H-indazol-5-yl)-2-(2-methylpyridin-4-yl)oxazole-4-carboxamide] the IC50 was < 50 nM.
Compound `CCOP(=O)(OCC)OC1CCN(c2cc3c(cnn3C)cc2NC(=O)c2coc(-c3ccnc(C)c3)n2)CC1` [Example 128, Diethyl (1-(1-methyl-5-(2-(2-methylpyridin-4-yl)oxazole-4-carboxamido)-1H-indazol-6-yl)piperidin-4-yl) phosphate] has an IC50 of 50 to 100 nM.
For `Cc1cc(-c2nc(C(=O)Nc3cc4cn(C)nc4cc3N3CCCC3)co2)ccn1` [Example 63, N-(2-methyl-6-(pyrrolidin-1-yl)-2H-indazol-5-yl)-2-(2-methylpyridin-4-yl)oxazole-4-carboxamide], the IC50 was < 50 nM.
In the case of `Cc1cc(-c2nc(C(=O)Nc3cc4cn(C)nc4cc3N3CC[C@H](O)C3)co2)ccn1` [Example 64, (S)—N-(6-(3-hydroxypyrrolidin-1-yl)-2-methyl-2H-indazol-5-yl)-2-(2-methylpyridin-4-yl)oxazole-4-carboxamide], the IC50 is reported as < 50 nM.
In the case of `Cc1cc(-c2nc(C(=O)Nc3cc4cn(C5CCCC5)nc4cc3C3CC3)co2)ccn1` [Example 6, N-(2-cyclopentyl-6-cyclopropyl-2H-indazol-5-yl)-2-(2-methylpyridin-4-yl) oxazole-4-carboxamide], the IC50 is reported as < 50 nM.
In the case of `Cc1cc(-c2nc(C(=O)Nc3cc4cn(C)nc4cc3N3CCC(N)CC3)co2)ccn1` [Example 109, N-(6-(4-aminopiperidin-1-yl)-2-methyl-2H-indazol-5-yl)-2-(2-methylpyridin-4-yl)oxazole-4-carboxamide hydrochloride], the IC50 is reported as < 50 nM.
With `CC(=O)Nc1cc(-c2nc(C(=O)Nc3cc4cn(C)nc4cc3N3CCC(CO)CC3)co2)ccn1` [Example 98, 2-(2-acetamidopyridin-4-yl)-N-(6-(4-(hydroxymethyl)piperidin-1-yl)-2-methyl-2H-indazol-5-yl)oxazole-4-carboxamide] the IC50 was < 50 nM.
Compound `Cn1cc2cc(NC(=O)c3cccc(N4CC[C@H](N)C4)n3)c(N3CCCCC3)cc2n1` [Example 33, (S)-6-(3-aminopyrrolidin-1-yl)-N-(2-methyl-6-(piperidin-1-yl)-2H-indazol-5-yl)picolinamide 2,2,2-trifluoroacetate] has an IC50 of 50 to 100 nM.
